# Data as given in article PMC11167047 (Cell Death Discovery, 2024).
# Legend:
# Assay in all cases: kinome screen (33PanQinase)
# Type in all cases: biochemical
# [1] = target: T1, ACVRL1 (Homo sapiens, UniProt P37023)
# T1 construct: purchased Reaction Biology Europe GmbH (formerly ProQinase)
# Description: (§1) The Kinome Screening was performed by Reaction Biology Europe GmbH (http://reactionbiology.com; Freiburg i. Br., Germany).
# [2] = target: T2, EPHA3 (Homo sapiens, UniProt P29320)
# T2 construct: purchased Reaction Biology Europe GmbH (formerly ProQinase)
# T2 sequence (P29320 21-983): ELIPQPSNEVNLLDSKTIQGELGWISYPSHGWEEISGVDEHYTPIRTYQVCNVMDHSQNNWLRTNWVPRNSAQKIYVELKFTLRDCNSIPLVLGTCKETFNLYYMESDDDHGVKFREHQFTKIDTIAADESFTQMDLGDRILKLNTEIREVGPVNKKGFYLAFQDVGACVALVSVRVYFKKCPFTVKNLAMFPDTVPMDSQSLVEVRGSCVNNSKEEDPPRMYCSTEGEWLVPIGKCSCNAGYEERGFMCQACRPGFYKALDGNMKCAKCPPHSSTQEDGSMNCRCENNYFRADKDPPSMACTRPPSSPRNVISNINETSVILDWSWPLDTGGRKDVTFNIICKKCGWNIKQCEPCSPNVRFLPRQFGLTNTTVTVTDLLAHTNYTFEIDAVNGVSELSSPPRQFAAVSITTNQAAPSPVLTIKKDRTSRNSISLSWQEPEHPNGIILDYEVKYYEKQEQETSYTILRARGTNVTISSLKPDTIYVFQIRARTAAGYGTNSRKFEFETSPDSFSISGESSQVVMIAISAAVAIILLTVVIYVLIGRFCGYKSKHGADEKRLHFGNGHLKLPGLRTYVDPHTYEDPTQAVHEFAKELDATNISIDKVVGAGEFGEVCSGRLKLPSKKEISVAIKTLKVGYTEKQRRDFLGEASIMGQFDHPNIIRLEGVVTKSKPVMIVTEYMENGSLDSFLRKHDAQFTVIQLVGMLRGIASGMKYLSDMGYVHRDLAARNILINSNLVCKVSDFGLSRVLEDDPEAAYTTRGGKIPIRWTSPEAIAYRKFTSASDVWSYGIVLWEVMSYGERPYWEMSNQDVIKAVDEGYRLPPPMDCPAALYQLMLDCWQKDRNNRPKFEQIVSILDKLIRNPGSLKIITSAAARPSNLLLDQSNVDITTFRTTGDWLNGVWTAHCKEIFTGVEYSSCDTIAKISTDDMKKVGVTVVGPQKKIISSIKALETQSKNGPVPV
# Description: as §1
# [3] = target: T3, EPHB1 (Homo sapiens, UniProt P54762)
# T3 construct: purchased Reaction Biology Europe GmbH (formerly ProQinase)
# T3 sequence (P54762 18-984): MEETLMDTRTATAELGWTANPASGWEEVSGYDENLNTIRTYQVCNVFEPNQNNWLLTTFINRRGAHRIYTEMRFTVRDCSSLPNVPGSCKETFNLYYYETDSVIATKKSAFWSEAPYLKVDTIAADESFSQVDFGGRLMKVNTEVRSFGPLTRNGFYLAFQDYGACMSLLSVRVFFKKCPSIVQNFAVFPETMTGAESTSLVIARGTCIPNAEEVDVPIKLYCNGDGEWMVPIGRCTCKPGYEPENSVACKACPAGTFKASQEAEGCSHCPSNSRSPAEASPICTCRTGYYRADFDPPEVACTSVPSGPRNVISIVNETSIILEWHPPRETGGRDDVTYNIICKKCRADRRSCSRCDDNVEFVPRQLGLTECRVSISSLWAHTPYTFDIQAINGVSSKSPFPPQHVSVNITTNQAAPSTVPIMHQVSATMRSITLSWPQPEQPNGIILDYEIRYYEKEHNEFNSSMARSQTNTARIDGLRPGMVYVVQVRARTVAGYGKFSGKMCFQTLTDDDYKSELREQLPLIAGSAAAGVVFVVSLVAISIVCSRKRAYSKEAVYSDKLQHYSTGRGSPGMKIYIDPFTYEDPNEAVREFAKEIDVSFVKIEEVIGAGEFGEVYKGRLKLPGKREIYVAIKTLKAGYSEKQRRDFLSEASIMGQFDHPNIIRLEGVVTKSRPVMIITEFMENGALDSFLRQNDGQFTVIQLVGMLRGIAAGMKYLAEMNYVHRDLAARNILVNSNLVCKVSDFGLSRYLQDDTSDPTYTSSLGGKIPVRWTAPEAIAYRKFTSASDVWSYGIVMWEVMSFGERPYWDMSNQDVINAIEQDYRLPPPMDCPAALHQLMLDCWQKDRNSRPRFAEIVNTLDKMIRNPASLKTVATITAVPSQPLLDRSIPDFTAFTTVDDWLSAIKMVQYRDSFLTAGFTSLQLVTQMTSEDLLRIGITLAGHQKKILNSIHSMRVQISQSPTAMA
# Description: as §1
# [4] = target: T4, PAK6 (Homo sapiens, UniProt Q9NQU5)
# T4 construct: purchased Reaction Biology Europe GmbH (formerly ProQinase)
# Description: as §1
# [5] = target: T5, SRPK1 (Homo sapiens, UniProt Q96SB4)
# T5 construct: purchased Reaction Biology Europe GmbH (formerly ProQinase)
# Description: as §1
# T5 sequence (Q96SB4 whole entry): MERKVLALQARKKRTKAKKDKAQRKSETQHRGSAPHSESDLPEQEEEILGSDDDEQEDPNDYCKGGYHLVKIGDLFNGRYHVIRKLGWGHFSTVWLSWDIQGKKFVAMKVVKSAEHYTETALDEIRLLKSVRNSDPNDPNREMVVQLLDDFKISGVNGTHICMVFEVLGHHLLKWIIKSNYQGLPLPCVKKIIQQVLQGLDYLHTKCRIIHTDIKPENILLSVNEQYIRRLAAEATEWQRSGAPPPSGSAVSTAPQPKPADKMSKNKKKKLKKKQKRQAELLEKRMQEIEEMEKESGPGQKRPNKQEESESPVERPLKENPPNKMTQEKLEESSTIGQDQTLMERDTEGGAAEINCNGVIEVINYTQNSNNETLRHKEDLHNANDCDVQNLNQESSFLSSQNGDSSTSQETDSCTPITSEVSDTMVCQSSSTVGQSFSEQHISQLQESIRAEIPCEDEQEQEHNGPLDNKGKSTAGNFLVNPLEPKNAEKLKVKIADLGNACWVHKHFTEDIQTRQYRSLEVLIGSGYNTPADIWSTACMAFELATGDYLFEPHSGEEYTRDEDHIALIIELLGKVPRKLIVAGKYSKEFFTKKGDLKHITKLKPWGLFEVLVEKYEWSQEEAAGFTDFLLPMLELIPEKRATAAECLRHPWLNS
# T1 sequence (P37023 22-503): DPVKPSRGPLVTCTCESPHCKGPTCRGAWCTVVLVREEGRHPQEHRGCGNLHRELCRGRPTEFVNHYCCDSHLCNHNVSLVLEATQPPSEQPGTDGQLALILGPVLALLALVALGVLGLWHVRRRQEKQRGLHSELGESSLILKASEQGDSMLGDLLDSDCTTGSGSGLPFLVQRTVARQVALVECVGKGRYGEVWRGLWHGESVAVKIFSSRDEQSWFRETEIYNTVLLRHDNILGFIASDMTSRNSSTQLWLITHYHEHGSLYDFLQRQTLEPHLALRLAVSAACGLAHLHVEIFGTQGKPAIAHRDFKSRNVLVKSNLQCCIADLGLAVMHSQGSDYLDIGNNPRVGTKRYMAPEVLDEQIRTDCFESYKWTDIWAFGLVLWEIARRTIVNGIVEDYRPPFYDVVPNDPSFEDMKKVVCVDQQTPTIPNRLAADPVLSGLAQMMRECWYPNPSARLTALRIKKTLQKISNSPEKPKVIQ
# T4 sequence (Q9NQU5 whole entry): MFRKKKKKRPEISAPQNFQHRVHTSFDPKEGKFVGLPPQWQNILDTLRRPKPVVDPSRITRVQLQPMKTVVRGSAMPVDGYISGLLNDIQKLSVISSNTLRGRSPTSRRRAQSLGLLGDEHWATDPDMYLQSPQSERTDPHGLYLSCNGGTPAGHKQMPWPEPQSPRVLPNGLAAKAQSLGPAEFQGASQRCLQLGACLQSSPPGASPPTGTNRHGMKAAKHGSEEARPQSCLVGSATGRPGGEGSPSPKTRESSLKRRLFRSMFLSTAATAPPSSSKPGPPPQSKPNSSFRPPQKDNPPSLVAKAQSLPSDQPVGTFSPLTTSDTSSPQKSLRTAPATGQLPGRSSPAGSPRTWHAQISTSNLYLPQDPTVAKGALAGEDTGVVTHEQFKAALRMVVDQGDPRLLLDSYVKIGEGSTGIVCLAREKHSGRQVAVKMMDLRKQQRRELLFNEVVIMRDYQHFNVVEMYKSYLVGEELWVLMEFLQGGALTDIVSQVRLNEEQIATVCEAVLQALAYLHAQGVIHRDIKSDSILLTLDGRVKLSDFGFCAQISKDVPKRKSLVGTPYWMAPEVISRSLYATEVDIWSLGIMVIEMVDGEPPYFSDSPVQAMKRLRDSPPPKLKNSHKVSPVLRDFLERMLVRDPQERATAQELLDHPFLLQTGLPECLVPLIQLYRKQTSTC
SMILES,residual kinase activity ([1]; 0.3 µM),residual kinase activity ([1]; 3 µM),residual kinase activity ([2]; 0.3 µM),residual kinase activity ([2]; 3 µM),residual kinase activity ([3]; 0.3 µM),residual kinase activity ([3]; 3 µM),residual kinase activity ([4]; 0.3 µM),residual kinase activity ([4]; 3 µM),residual kinase activity ([5]; 0.3 µM),residual kinase activity ([5]; 3 µM),residual kinase activity ([1]; 0.03 µM),residual kinase activity ([2]; 0.03 µM),residual kinase activity ([3]; 0.03 µM),residual kinase activity ([4]; 0.03 µM),residual kinase activity ([5]; 0.03 µM)
c1ccc(CNc2cc(-c3c[nH]c4ncccc34)ccn2)cc1 [meriolin 36],43 % of control,9 % of control,111 % of control,103 % of control,124 % of control,79 % of control,54 % of control,14 % of control,110 % of control,70 % of control,–,–,–,–,–
COc1ccnc2[nH]cc(-c3cc(N)nc(N)c3)c12 [meriolin 16],89 % of control,–,94 % of control,–,97 % of control,–,76 % of control,–,99 % of control,–,101 % of control,102 % of control,98 % of control,88 % of control,108 % of control
